Bridge positions count the residues as written; N and C are the ends. Peptide text beside a SMILES is read from it.
Experiments:
[1] = tested on: serum calcium concentration
Description: Biological Assay of Calcitonin Analogs in Vivo
Rats were divided into four groups of seven animals, and each group was assigned at random to a dose of standard or test solution. Low and high doses were chosen from the linear portion of the dose-response curve. For the salmon calcitonin standard, the values were 0.7 and 2.1 mcg. peptide/100 g. body weight (BW). This dose approximates 3 and 9 MU/100 g. […] Peptides were given by subcutaneous injection (0.2 ml/100 g. BW) and blood was withdrawn 1 hour later for serum calcium determination. Sera are processed and analyzed within two hours of collection.

[2] = literature values; cited from earlier work

| Compound | hypocalcemic potency [2] | other results |
| --- | --- | --- |
| CC(C)C[C@H](NC(=O)[C@H](CCCCN)NC(=O)CNC(=O)[C@H](CC(C)C)NC(=O)[C@@H](NC(=O)[C@@H]1CSSC[C@H](N)C(=O)N[C@@H](CO)C(=O)N[C@@H](CC(N)=O)C(=O)N[C@@H](CC(C)C)C(=O)N[C@@H](CO)C(=O)N[C@@H]([C@@H](C)O)C(=O)N1)C(C)C)C(=O)N[C@@H](CO)C(=O)N[C@@H](CCC(N)=O)C(=O)N[C@@H](CCC(=O)O)C(=O)N[C@@H](CC(C)C)C(=O)N[C@@H](Cc1c[nH]cn1)C(=O)N[C@@H](CCCCN)C(=O)N[C@@H](C)C(=O)N[C@@H](CCC(N)=O)C(=O)N[C@H](C(=O)N[C@@H](Cc1ccc(O)cc1)C(=O)N1CCC[C@H]1C(=O)N[C@@H](CCCNC(=N)N)C(=O)N[C@H](C(=O)N[C@@H](CC(N)=O)C(=O)N[C@H](C(=O)NCC(=O)N[C@@H](CO)C(=O)NCC(=O)N[C@H](C(=O)N1CCC[C@H]1C(N)=O)[C@@H](C)O)[C@@H](C)O)[C@@H](C)O)[C@@H](C)O [[Ala^19]SCT, [19-Alanine] salmon calcitonin] (H-CSNLSTCVLGKLSQELHKAQTYPRTNTGSGTP-NH2; disulfide 1-7) |  | biological potency ([1]; rat, in vivo, sc): 5400 IU/mg |
| CC(C)C[C@H](NC(=O)[C@H](CCCCN)NC(=O)CNC(=O)[C@H](CC(C)C)NC(=O)[C@@H](NC(=O)[C@@H]1CSSC[C@H](N)C(=O)N[C@@H](CO)C(=O)N[C@@H](CC(N)=O)C(=O)N[C@@H](CC(C)C)C(=O)N[C@@H](CO)C(=O)N[C@@H]([C@@H](C)O)C(=O)N1)C(C)C)C(=O)N[C@@H](CO)C(=O)N[C@@H](CCC(N)=O)C(=O)N[C@@H](CCC(=O)O)C(=O)N[C@@H](CC(C)C)C(=O)N[C@@H](Cc1c[nH]cn1)C(=O)N[C@@H](CCCCN)C(=O)N[C@@H](CC(C)C)C(=O)N[C@@H](CCC(N)=O)C(=O)N[C@H](C(=O)N[C@@H](Cc1ccc(O)cc1)C(=O)N1CCC[C@H]1C(=O)N[C@@H](CCCNC(=N)N)C(=O)N[C@H](C(=O)N[C@@H](CC(N)=O)C(=O)N[C@H](C(=O)NCC(=O)N[C@@H](CO)C(=O)NCC(=O)N[C@H](C(=O)N1CCC[C@H]1C(N)=O)[C@@H](C)O)[C@@H](C)O)[C@@H](C)O)[C@@H](C)O [standard salmon calcitonin, Salmon calcitonin] |  | biological potency of the standard, independently determined ([1]; standard used in the assay, independently determined): greater than 4,000 IU/mg |
| (1,7-alpha-L-amino-suberic acid) eel calcitonin | about 3400 IU/mg |  |
| eel calcitonin [synthetic eel calcitonin] | around 4300 IU/mg |  |
